According to US9884818B2, “Sulphamoylpyrrolamide derivatives and the use thereof as medicaments for the treatment of hepatitis B” (Janssen Sciences Ireland UC, priority 2013, dated 2018):

Key:
[1] = tested on: HBV; experiment: Anti-HBV activity, HepG2.2.15 stable transfected cell line, HBV DNA from secreted virions by realtime PCR; type: cell-based; conditions: Hepatitis B virus, HepG2.2.15, 144 h, HepG2.2.15 cells, 6 days of treatment, HBV DNA from secreted virions; read-out: HepG2 2.15 EC50
[2] = tested on: HBV; experiment: Anti-HBV activity, HepG2.117 inducibly HBV producing cell line (Tet-off), intracellular HBV DNA by realtime PCR; type: cell-based; conditions: Hepatitis B virus, HepG2.117, 72 h, HepG2.117 cells, 3 days of treatment, intracellular HBV DNA; read-out: HepG2 117 EC50
[3] = Cytotoxicity in HepG2 cells, Resazurin viability assay; conditions: human, HepG2 cells, HepG2 4 days CC50 (μM), incubated for 4 days, Resazurin assay

| Compound | EC50 [1] [nM] | EC50 [2] [nM] | CC50 at 4 days [3] [µM] |
| --- | --- | --- | --- |
| Cc1cc(NC(=O)c2cc(S(=O)(=O)NC(C)(C)C)cn2C)ccc1F [Compound 16, 4-(tert-butylsulfamoyl)-N-(4-fluoro-3-methyl-phenyl)-1-methyl-pyrrole-2-carboxamide] | 60 | 30 | > 25 |
| Cn1cc(S(=O)(=O)NC2(C)COC2)cc1C(=O)Nc1ccc(F)c(C#N)c1 [Compound 50, N-(3-cyano-4-fluorophenyl)-1-methyl-4-[(3-methyloxetan-3-yl)sulfamoyl]-1H-pyrrole-2-carboxamide] | 70 | 50 | > 25 |
| C[C@@H](NS(=O)(=O)c1cc(C(=O)Nc2cc(F)c(F)c(Cl)c2)n(C)c1)C(F)(F)F [Compound 60, N-(3-chloro-4,5-difluoro-phenyl)-1-methyl-4-[[(1R)-2,2,2-trifluoro-1-methyl-ethyl]sulfamoyl]pyrrole-2-carboxamide] | 20 | 30 | 24.1 |
| C[C@@H](NS(=O)(=O)c1cn(C)c(C(=O)Nc2ccc(F)c(C(F)F)c2F)c1Cl)C(F)(F)F [Compound 278, 3-chloro-N-[3-(difluoromethyl)-2,4-difluoro-phenyl]-1-methyl-4-[[(1R)-2,2,2-trifluoro-1-methyl-ethyl]sulfamoyl]pyrrole-2-carboxamide] | 6 | 10 | > 25 |
| CC[C@H](NS(=O)(=O)c1cn(C)c(C(=O)Nc2ccc(F)c(C#N)c2)c1Cl)C(F)(F)F [Compound 289, 3-chloro-N-(3-cyano-4-fluoro-phenyl)-1-methyl-4-[[(15)-1-(trifluoro-methyl)propyl]sulfamoyl]pyrrole-2-carboxamide] | 40 | 50 | > 25 |
| Cc1c(S(=O)(=O)NC2(C)COC2)cn(C)c1C(=O)Nc1ccc(F)c(Cl)c1 [Compound 149, N-(3-Chloro-4-fluorophenyl)-1,3-dimethyl-4-[(3-methyloxetan-3-yl)sulfamoyl]-1H-pyrrole-2-carboxamide] | 40 | 30 | > 25 |
| Cn1cc(S(=O)(=O)NCC(F)F)cc1C(=O)Nc1ccc(F)c(Cl)c1 [Compound 128, N-(3-Chloro-4-fluorophenyl)-4-[(2,2-difluoroethyl)sulfamoyl]-1-meth-1H-pyrrole-2-carboxamide] | 150 | 90 | > 25 |
| C[C@H](NS(=O)(=O)c1cc(C(=O)Nc2cccc(C#N)c2F)n(C)c1)C(F)(F)F [Compound 198, N-(3-Cyano-2-fluorophenyl)-1-methyl-4-{[(1S)-2,2,2-trifluoro-1-methylethyl]sulfamoyl}-1H-pyrrole-2-carboxamide] | 150 | 80 | > 25 |
| Cc1cc(NC(=O)c2cc(S(=O)(=O)N[C@H]3CCOC3)cn2C)cc(C)c1F [Compound 31, N-(4-fluoro-3,5-dimethyl-phenyl)-1-methyl-4-[[(3S)-tetrahydrofuran-3-yl]-sulfamoyl]pyrrole-2-carboxamide] | 130 | 390 | > 25 |
| CC(C)c1c(S(=O)(=O)N[C@H](C)C(F)(F)F)cn(C)c1C(=O)Nc1ccc(F)c(C#N)c1 [Compound 303, N-(3-cyano-4-fluoro-phenyl)-3-isopropyl-1-methyl-4-[[(1R)-2,2,2-trifluoro-1-methyl-ethyl]sulfamoyl]pyrrole-2-carboxamide] | – | > 12500 | > 25 |
| C[C@H](NS(=O)(=O)c1cn(C)c(C(=O)Nc2ccc(F)c(C#N)c2)c1F)C(C)(F)F [Compound 318, N-(3-cyano-4-fluoro-phenyl)-4-[[(1S)-2,2-difluoro-1-methyl-propyl]sulfamoyl]-3-fluoro-1-methyl-pyrrole-2-carboxamide] | – | 19 | > 25 |
